Results as given in US9382188B2, “Aromatic ring compound” (TAKEDA PHARMACEUTICAL COMPANY LIMITED, priority 2012, dated 2016).

target: T1, human GPR40 (Homo sapiens, UniProt O14842); assay: Evaluation of human GPR40 agonist activity with increase in intracellular Ca2+ concentration as an index (FLIPR Tetra); assay type: cell-based; settings: test compound 1 μM; CHO(dhfr-) cells stably expressing human GPR40; 100% = activity of 1 μM WO2009/048527 Example 99.2, 0% = DMSO
T1 construct: expressed in transfected cells
T1 sequence (O14842 whole entry): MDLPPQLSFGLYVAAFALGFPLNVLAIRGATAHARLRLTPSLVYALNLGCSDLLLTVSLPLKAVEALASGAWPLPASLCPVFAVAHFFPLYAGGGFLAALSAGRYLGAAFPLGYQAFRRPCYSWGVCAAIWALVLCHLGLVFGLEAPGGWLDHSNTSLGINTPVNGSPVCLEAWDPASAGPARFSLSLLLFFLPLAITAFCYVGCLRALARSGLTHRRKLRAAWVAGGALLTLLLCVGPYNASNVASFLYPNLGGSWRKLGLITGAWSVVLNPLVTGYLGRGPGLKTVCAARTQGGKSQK
Procedure: Evaluation of human GPR40 agonist activity with increase in intracellular Ca^2+ concentration as an index
CHO(dhfr-) cells that stably expressed human GPR40 were suspended in MEMα (Nikken Bio Medical Laboratory) containing 10% dialysis serum (GEMINI BIO-PRODUCTS), 10 mM HEPES (Invitrogen), 100 U/mL penicillin, 100 μg/mL streptomycin (Invitrogen), and plated on a 384 well black/clear cell culture plate at 10,000 cells/well. After culture overnight in a CO2 incubator at 37° C., the culture supernatant was removed, and a loading buffer [dye attached to Calcium 5 Assay Kit (Molecular Devices) was dissolved in an assay buffer (20 mM HEPES, 0.2% fatty acid-free BSA (Sigma-Aldrich), 2.5 mM probenecid (DOJINDO)-containing HBSS (Invitrogen)) added with 0.025% Cremophor EL (DOJINDO)] was added at 37.5 μL/well. After incubation in a CO2 incubator at 37° C. for 1 hr, the cells were stood at room temperature for 15 min, an assay buffer containing the test compound at a final concentration of 1 μM was added at 12.5 μL/well in FLIPR Tetra (Molecular Devices), and the fluorescence amount was successively measured. Human GPR40 agonist activity calculated using an increase in the intracellular Ca^2+ concentration as an index, wherein the activity of 1 μM of the compound described in WO 2009/048527 (WO2009/048527 Example 99.2) was 100%, and the activity when DMSO was added instead of the test compound was 0%.

In order of rising activation at 1 µM:
1. COc1ccc(F)c(-c2ccc(OCc3cccc(C(CC(=O)O)CC(=O)O)c3)cc2CC(C)(C)C)c1 [Example 82, 3-(3-(((2′-fluoro-5′-methoxy-2-neopentyl-[1,1′-biphenyl]-4-yl)oxy)methyl)phenyl)pentanedioic acid]  5%
2. COc1ccc(F)c(-c2ccc(OCc3cccc(C(CC(N)=O)CC(=O)O)c3)cc2CC(C)(C)C)c1 (stereo not shown) [Example 83, 5-amino-3-(3-(((2′-fluoro-5′-methoxy-2-neopentyl-[1,1′-biphenyl]-4-yl)oxy)methyl)phenyl)-5-oxopentanoic acid]  34%
3. COc1ccc(F)c(-c2ccc(OCc3cccc(C(CC(=O)O)C(C)(C)C#N)c3)cc2CC(C)(C)C)c1 (stereo not shown) [Example 84, 4-cyano-3-(3-(((2′-fluoro-5′-methoxy-2-neopentyl-[1,1′-biphenyl]-4-yl)oxy)methyl)phenyl)-4-methylpentanoic acid]  90%
4. COc1ccc(F)c(-c2ccc(OCc3cccc(C(CC(=O)O)C4CC4)c3)cc2-c2nnc(C(F)(F)F)s2)c1 (stereo not shown) [Example 75, 3-cyclopropyl-3-(3-(((2′-fluoro-5′-methoxy-2-(5-(trifluoromethyl)-1,3,4-thiadiazol-2-yl)-[1,1′-biphenyl]-4-yl)oxy)methyl)phenyl)propanoic acid]  91%
5. COc1ccc(F)c(-c2ccc(OCc3cccc(C(CC(=O)O)C4CC4)c3)cc2CC2(C#N)CCCCC2)c1 (stereo not shown) [Example 99, 3-(3-(((2-((1-cyanocyclohexyl)methyl)-2′-fluoro-5′-methoxybiphenyl-4-yl)oxy)methyl)phenyl)-3-cyclopropylpropanoic acid]  93%
6. CCC(CC(=O)O)c1cccc(COc2ccc(-c3cc(OC)ccc3F)c(CC(C)(C)C)c2)c1 (stereo not shown) [Example 80, 3-(3-(((2′-fluoro-5′-methoxy-2-neopentyl-[1,1′-biphenyl]-4-yl)oxy)methyl)phenyl)pentanoic acid]  94%
7. COc1ccc(F)c(-c2ccc(OCc3cccc(C(CCCC#N)CC(=O)O)c3)cc2CC(C)(C)C)c1 (stereo not shown) [Example 89, 6-cyano-3-(3-(((2′-fluoro-5′-methoxy-2-neopentyl-[1,1′-biphenyl]-4-yl)oxy)methyl)phenyl)hexanoic acid]  94%
8. CC#CC(CC(=O)O)c1cccc(COc2ccc(-c3cc(OC)ccc3F)c(CC(C)(C)C)c2)c1 (stereo not shown) [Example 76, 3-(3-(((2′-fluoro-5′-methoxy-2-neopentyl-[1,1′-biphenyl]-4-yl)oxy)methyl)phenyl)hex-4-ynoic acid]  95%
9. COc1ccc(F)c(-c2ccc(OCc3cccc(C(CC(=O)O)C(C)(F)F)c3)cc2CC(C)(C)C)c1 (stereo not shown) [Example 86, 4,4-difluoro-3-(3-(((2′-fluoro-5′-methoxy-2-neopentyl-[1,1′-biphenyl]-4-yl)oxy)methyl)phenyl)pentanoic acid]  95%
10. COc1ccc(F)c(-c2ccc(OCc3cccc(C(CC(=O)O)C(F)(F)C(F)(F)F)c3)cc2CC(C)(C)C)c1 (stereo not shown) [Example 85, 4,4,5,5,5-pentafluoro-3-(3-(((2′-fluoro-5′-methoxy-2-neopentyl-[1,1′-biphenyl]-4-yl)oxy)methyl)phenyl)pentanoic acid]  96%
11. COc1ccc(F)c(-c2ccc(OCc3cccc(C(CC(=O)O)C4CC4)c3)cc2C(C)C(C)(C)C)c1 (stereo not shown) [Example 98, 3-cyclopropyl-3-(3-(((2-(3,3-dimethylbutan-2-yl)-2′-fluoro-5′-methoxybiphenyl-4-yl)oxy)methyl)phenyl)propanoic acid]  96%
12. COc1ccc(F)c(-c2ccc(OCc3cccc(C(CC(=O)O)C4CC4C#N)c3)cc2CC(C)(C)C)c1 (stereo not shown) [Example 87, 3-(2-cyanocyclopropyl)-3-(3-(((2′-fluoro-5′-methoxy-2-neopentyl-[1,1′-biphenyl]-4-yl)oxy)methyl)phenyl)propanoic acid]  98%
13. COc1ccc(F)c(-c2ccc(OCc3cccc(C(C#CC4CC4)CC(=O)O)c3)cc2CC(C)(C)C)c1 (stereo not shown) [Example 77, 5-cyclopropyl-3-(3-(((2′-fluoro-5′-methoxy-2-neopentyl-[1,1′-biphenyl]-4-yl)oxy)methyl)phenyl)pent-4-ynoic acid]  101%
14. COc1ccc(F)c(-c2ccc(OCc3cccc(C(CC(=O)O)C4CC4)c3)cc2OC(C)(C)C)c1 (stereo not shown) [Example 74, 3-(3-(((2-tert-butoxy-2′-fluoro-5′-methoxybiphenyl-4-yl)oxy)methyl)phenyl)-3-cyclopropylpropanoic acid]  104%
15. CCC1(Cc2cc(OCc3cccc(C(CC(=O)O)C4CC4)c3)ccc2-c2cc(OC)ccc2F)CCCC1 (stereo not shown) [Example 100, 3-cyclopropyl-3-(3-(((2-((1-ethylcyclopentyl)methyl)-2′-fluoro-5′-methoxybiphenyl-4-yl)oxy)methyl)phenyl)propanoic acid]  105%
16. COc1ccc(F)c(-c2ccc(OCc3cccc(C(CC(=O)O)C4CC4)c3)cc2CCC(C)(C)C)c1 (stereo not shown) [Example 93, 3-cyclopropyl-3-(3-(((2-(3,3-dimethylbutyl)-2′-fluoro-5′-methoxybiphenyl-4-yl)oxy)methyl)phenyl)propanoic acid]  106%
17. COc1ccc(F)c(-c2ccc(OCc3cccc(C(CC(=O)O)C4CC4)c3)cc2C(F)C2(C#N)CCCC2)c1 (stereo not shown) [Example 101, 3-(3-(((2-((1-cyanocyclopentyl)(fluoro)methyl)-2′-fluoro-5′-methoxybiphenyl-4-yl)oxy)methyl)phenyl)-3-cyclopropylpropanoic acid]  106%
18. COc1ccc(F)c(-c2ccc(OCc3cccc(C(CC(=O)O)C4CC4)c3)cc2C(O)C(C)(C)C)c1 (stereo not shown) [Example 95]  107%
19. COc1ccc(F)c(-c2ccc(OCc3cccc(C(CC(=O)O)C4CC4)c3)cc2C(F)CC(C)(C)C)c1 (stereo not shown) [Example 94, 3-cyclopropyl-3-(3-(((2′-fluoro-2-(1-fluoro-3,3-dimethylbutyl)-5′-methoxybiphenyl-4-yl)oxy)methyl)phenyl)propanoic acid]  110%
20. COc1ccc(F)c(-c2ccc(OCc3cccc(C(CC(=O)O)C4CC4)c3)cc2CCC(C)(C)OC)c1 (stereo not shown) [Example 92, 3-cyclopropyl-3-(3-(((2′-fluoro-5′-methoxy-2-(3-methoxy-3-methylbutyl)biphenyl-4-yl)oxy)methyl)phenyl)propanoic acid]  113%
21. COc1ccc(F)c(-c2ccc(OCc3cccc(C(CC(=O)O)C(C)C)c3)cc2CC(C)(C)C)c1 (stereo not shown) [Example 78, 3-(3-(((2′-fluoro-5′-methoxy-2-neopentyl-[1,1′-biphenyl]-4-yl)oxy)methyl)phenyl)-4-methylpentanoic acid]  118%
22. COc1ccc(F)c(-c2ccc(OCc3cccc(C(CC(=O)O)C4CC4)c3)cc2CC2(C)CCCC2)c1 (stereo not shown) [Example 97, 3-cyclopropyl-3-(3-(((2′-fluoro-5′-methoxy-2-((1-methylcyclopentyl)methyl)biphenyl-4-yl)oxy)methyl)phenyl)propanoic acid]  118%
23. C=CC(CC(=O)O)c1cccc(COc2ccc(-c3cc(OC)ccc3F)c(CC(C)(C)C)c2)c1 (stereo not shown) [Example 79, 3-(3-(((2′-fluoro-5′-methoxy-2-neopentyl-[1,1′-biphenyl]-4-yl)oxy)methyl)phenyl)pent-4-enoic acid]  134%
24. CCOC(=O)CC(CC(=O)O)c1cccc(COc2ccc(-c3cc(OC)ccc3F)c(CC(C)(C)C)c2)c1 (stereo not shown) [Example 81, 5-ethoxy-3-(3-(((2′-fluoro-5′-methoxy-2-neopentyl-[1,1′-biphenyl]-4-yl)oxy)methyl)phenyl)-5-oxopentanoic acid]  134%
25. COc1ccc(F)c(-c2ccc(OCc3cccc(C(CC(=O)O)C4CC4)c3)cc2C2CC(C)(C)OC(C)(C)C2)c1 (stereo not shown) [Example 96, 3-cyclopropyl-3-(3-(((2′-fluoro-5′-methoxy-2-(2,2,6,6-tetramethyltetrahydro-2H-pyran-4-yl)biphenyl-4-yl)oxy)methyl)phenyl)propanoic acid]  140%

In order of falling “Human GPR40 agonist activity (increase in intracellular Ca2+ concentration)” value:
1. COc1ccc(F)c(-c2ccc(OCc3cccc(C(CC(=O)O)C4CC4C#N)c3)cc2CC(C)(C)C)c1 (stereo not shown) [Example 88, 3-(2-cyanocyclopropyl)-3-(3-(((2′-fluoro-5′-methoxy-2-neopentyl-[1,1′-biphenyl]-4-yl)oxy)methyl)phenyl)propanoic acid]  112%
2. COc1ccc(F)c(-c2ccc(OCc3cccc(C(CC(=O)O)C4CC4C#N)c3)cc2CC(C)(C)C)c1 (stereo not shown) [Example 90, 3-(2-cyanocyclopropyl)-3-(3-(((2′-fluoro-5′-methoxy-2-neopentyl-[1,1′-biphenyl]-4-yl)oxy)methyl)phenyl)propanoic acid]  107%
3. COc1ccc(F)c(-c2ccc(OCc3cccc(C(CC(=O)O)C4CC4C#N)c3)cc2CC(C)(C)C)c1 (stereo not shown) [Example 91, 3-(2-cyanocyclopropyl)-3-(3-(((2′-fluoro-5′-methoxy-2-neopentyl-[1,1′-biphenyl]-4-yl)oxy)methyl)phenyl)propanoic acid]  97%
